Reference: the supplement of paper PMC10307832

Key:
Assay in all cases: relative viability (nuclei count vs DMSO), 5 days (fraction); higher = more cells survive
ChaGo-K-1 = test system: ChaGo-K-1
Outline: (§1)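 Cells from lung cancer lines were seeded into 1536-well plates and, one day later, dosed by pin tool. Treatments were either a single drug or a fixed dose of an anchor drug with five library-drug doses (not always all listed) in √10 steps. After 5 days, nuclei were stained in a one-step fixation (final 0.05% Triton X-100, 1% formaldehyde, 1 ug/ml Hoechst) and counted on 4× images, and relative viability is the treated-to-vehicle nuclei ratio, as the median of duplicate plates.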

IA-LM = test system: IA-LM
Outline: as §1

SW 1573 = test system: SW 1573
Outline: as §1

NCI-H1437 = test system: NCI-H1437
Outline: as §1

SK-MES-1 = test system: SK-MES-1
Outline: as §1

ABC-1 = test system: ABC-1
Outline: as §1

NCI-H1651 = test system: NCI-H1651
Outline: as §1

COR-L23 = test system: COR-L23
Outline: as §1

NCI-H1648 = test system: NCI-H1648
Outline: as §1

NCI-H1703 = test system: NCI-H1703
Outline: as §1

O=c1cc(N2CCOCC2)oc2c(-c3cccc4c3sc3ccccc34)cccc12 + O=C(CCCCCCC(=O)Nc1ccccc1)NO [Vorinostat] (partner 1 µM)
relative viability (ChaGo-K-1; first compound 0.01 µM): 0.69
relative viability (ChaGo-K-1; first compound 0.03162 µM): 0.785
relative viability (ChaGo-K-1; first compound 0.1 µM): 0.578
relative viability (ChaGo-K-1; first compound 0.3162 µM): 0.813
relative viability (ChaGo-K-1; first compound 1 µM): 0.789
relative viability (IA-LM; first compound 0.01 µM): 0.965
relative viability (IA-LM; first compound 0.03162 µM): 0.986
relative viability (IA-LM; first compound 0.1 µM): 0.907
relative viability (IA-LM; first compound 0.3162 µM): 0.901
relative viability (IA-LM; first compound 1 µM): 0.909
relative viability (SW 1573; first compound 0.01 µM): 0.572
relative viability (SW 1573; first compound 0.03162 µM): 0.767
relative viability (SW 1573; first compound 0.1 µM): 0.55
relative viability (SW 1573; first compound 0.3162 µM): 0.614
relative viability (SW 1573; first compound 1 µM): 0.592
relative viability (NCI-H1437; first compound 0.01 µM): 0.822
relative viability (NCI-H1437; first compound 0.03162 µM): 0.874
relative viability (NCI-H1437; first compound 0.1 µM): 0.866
relative viability (NCI-H1437; first compound 0.3162 µM): 0.784
relative viability (NCI-H1437; first compound 1 µM): 0.806
relative viability (SK-MES-1; first compound 0.01 µM): 1.04
relative viability (SK-MES-1; first compound 0.03162 µM): 1.06
relative viability (SK-MES-1; first compound 0.1 µM): 1.04
relative viability (SK-MES-1; first compound 0.3162 µM): 1.04
relative viability (SK-MES-1; first compound 1 µM): 1.09
relative viability (ABC-1; first compound 0.01 µM): 1.36
relative viability (ABC-1; first compound 0.03162 µM): 1.58
relative viability (ABC-1; first compound 0.1 µM): 1.31
relative viability (ABC-1; first compound 0.3162 µM): 1.17
relative viability (ABC-1; first compound 1 µM): 1.02
relative viability (NCI-H1651; first compound 0.01 µM): 0.55
relative viability (NCI-H1651; first compound 0.03162 µM): 0.556
relative viability (NCI-H1651; first compound 0.1 µM): 0.528
relative viability (NCI-H1651; first compound 0.3162 µM): 0.567
relative viability (NCI-H1651; first compound 1 µM): 0.489
relative viability (COR-L23; first compound 0.01 µM): 0.578
relative viability (COR-L23; first compound 0.03162 µM): 0.503
relative viability (COR-L23; first compound 0.1 µM): 0.473
relative viability (COR-L23; first compound 0.3162 µM): 0.424
relative viability (COR-L23; first compound 1 µM): 0.54
relative viability (NCI-H1648; first compound 0.03162 µM): 0.577
relative viability (NCI-H1648; first compound 0.1 µM): 0.438
relative viability (NCI-H1648; first compound 0.3162 µM): 0.419
relative viability (NCI-H1648; first compound 1 µM): 0.689

CCN(CC)CCCCNc1ncc2cc(-c3cc(OC)cc(OC)c3)c(NC(=O)NC(C)(C)C)nc2n1 + NC(=O)Nc1cc(-c2cccc(F)c2)sc1C(=O)N[C@H]1CCCNC1 [AZD7762] (partner 0.2 µM)
relative viability (ChaGo-K-1; first compound 0.01 µM): 0.885
relative viability (ChaGo-K-1; first compound 0.03162 µM): 0.927
relative viability (ChaGo-K-1; first compound 0.1 µM): 0.956
relative viability (ChaGo-K-1; first compound 0.3162 µM): 0.878
relative viability (ChaGo-K-1; first compound 1 µM): 0.853
relative viability (NCI-H1437; first compound 0.01 µM): 1.2
relative viability (NCI-H1437; first compound 0.03162 µM): 1.07
relative viability (NCI-H1437; first compound 0.1 µM): 1.17
relative viability (NCI-H1437; first compound 0.3162 µM): 1.17
relative viability (NCI-H1437; first compound 1 µM): 1.04
relative viability (ABC-1; first compound 0.01 µM): 0.766
relative viability (ABC-1; first compound 0.1 µM): 1.1
relative viability (ABC-1; first compound 0.3162 µM): 0.795
relative viability (ABC-1; first compound 1 µM): 0.825
relative viability (NCI-H1651; first compound 0.01 µM): 0.444
relative viability (NCI-H1651; first compound 0.03162 µM): 0.508
relative viability (NCI-H1651; first compound 0.1 µM): 0.497
relative viability (NCI-H1651; first compound 0.3162 µM): 0.608
relative viability (NCI-H1651; first compound 1 µM): 0.397
relative viability (NCI-H1703; first compound 0.03162 µM): 0.0943
relative viability (NCI-H1703; first compound 0.1 µM): 0.12
relative viability (NCI-H1703; first compound 0.3162 µM): 0.143
relative viability (NCI-H1703; first compound 1 µM): 0.112
relative viability (NCI-H1648; first compound 0.01 µM): 0.69
relative viability (NCI-H1648; first compound 0.03162 µM): 0.688
relative viability (NCI-H1648; first compound 0.1 µM): 0.757
relative viability (NCI-H1648; first compound 0.3162 µM): 0.583
relative viability (NCI-H1648; first compound 1 µM): 0.445

COc1nc(C)cnc1NS(=O)(=O)c1cccnc1-c1ccc(-c2nnco2)cc1 [Zibotentan] + O=C(CCCCCCC(=O)Nc1ccccc1)NO [Vorinostat] (partner 1 µM)
relative viability (ChaGo-K-1; first compound 0.08 µM): 0.802
relative viability (ChaGo-K-1; first compound 0.253 µM): 0.764
relative viability (ChaGo-K-1; first compound 0.8 µM): 0.713
relative viability (ChaGo-K-1; first compound 2.53 µM): 0.815
relative viability (IA-LM; first compound 0.08 µM): 0.881
relative viability (IA-LM; first compound 0.253 µM): 0.981
relative viability (IA-LM; first compound 0.8 µM): 0.9
relative viability (IA-LM; first compound 2.53 µM): 0.939
relative viability (SW 1573; first compound 0.08 µM): 0.76
relative viability (SW 1573; first compound 0.8 µM): 0.957
relative viability (SW 1573; first compound 2.53 µM): 0.885
relative viability (NCI-H1437; first compound 0.08 µM): 1.05
relative viability (NCI-H1437; first compound 0.253 µM): 0.823
relative viability (NCI-H1437; first compound 0.8 µM): 0.834
relative viability (NCI-H1437; first compound 2.53 µM): 0.828
relative viability (SK-MES-1; first compound 0.08 µM): 1.18
relative viability (SK-MES-1; first compound 0.253 µM): 0.793
relative viability (SK-MES-1; first compound 0.8 µM): 1.09
relative viability (SK-MES-1; first compound 2.53 µM): 1.12
relative viability (ABC-1; first compound 0.08 µM): 1.01
relative viability (ABC-1; first compound 0.253 µM): 0.77
relative viability (ABC-1; first compound 0.8 µM): 1.05
relative viability (ABC-1; first compound 2.53 µM): 1.53
relative viability (NCI-H1651; first compound 0.08 µM): 0.543
relative viability (NCI-H1651; first compound 0.253 µM): 0.492
relative viability (NCI-H1651; first compound 0.8 µM): 0.559
relative viability (NCI-H1651; first compound 2.53 µM): 0.461
relative viability (COR-L23; first compound 0.08 µM): 0.448
relative viability (COR-L23; first compound 0.253 µM): 0.446
relative viability (COR-L23; first compound 0.8 µM): 0.351
relative viability (COR-L23; first compound 2.53 µM): 0.46
relative viability (NCI-H1648; first compound 0.08 µM): 0.574
relative viability (NCI-H1648; first compound 0.253 µM): 0.331
relative viability (NCI-H1648; first compound 0.8 µM): 0.54
relative viability (NCI-H1648; first compound 2.53 µM): 0.483
